{
  "source": "patent US5225404A",
  "about": "“Methods of treating colon tumors with tumor-inhibiting camptothecin compounds” (New York University, priority 1989, dated 1993)",
  "key": {"[1]": {"test": "overall toxicity in tumor-bearing mice (Example 7)", "type": "in vivo", "text": "Another important feature of the method provided by the present invention relates to the relatively low or no apparent overall toxicity of the camptothecin compounds administered in accordance herein. Overall toxicity can be judged using various criteria. For example, loss of body weight in a subject over 10% of the initially recorded body weight (i.e., before treatment) can be considered as one sign of toxicity. In addition, loss of overall mobility and activity and signs of diarrhea or cystitis in a subject can also be interpreted as evidence of toxicity. In one of the examples which follow, the overall toxicity of the camptothecin compounds was evaluated.\nThe overall toxicity of the colon tumor-inhibiting camptothecin compounds was next to be evaluated at various dosages. The overall toxicity of 9-amino-20(RS)-camptothecin, 10,11-methylenedioxy-camptothecin and the sodium salt of 10,11-methylenedioxy-camptothecin was evaluated in this example as follows: tumor fragments were implanted under the skin of 5-6 mice in each group beginning on day 0. The mice were injected with one of the compounds beginning on day 7 after visible signs that malignant growth of the implanted tumor had occurred. The injections of the compound were given at predetermined doses of 10 or 12.5 mg/kg of body weight per week for a total of 3-6 weeks. Injections were daily or given two times per week. The body weights of the controls (mice with tumors, injected with placebo) and that of the drug-treated mice were taken two times each week and recorded. Overall toxicity was determined in the following way: loss of body weight after treatment in a subject of more than 10% over the initial body weight of the subject recorded at the beginning of the experiment, was considered a sign of toxicity. The mice were also monitored for their ability to regain the lost body weight. Regaining entirely its lost body weight would therefore be a sign of low toxicity in a subject. In addition, mice were monitored for their overall mobility and activity as well as for signs of diarrhea or cystitis. Mobility/activity was judged on a sliding scale of 1 to 5. That is, a score of 1 indicated good mobility/activity and a score of 5 indicated poor mobility/activity. Diarrhea and cystitis were judged on a plus/minus basis."}, "mouse leukemias": {"tested_on": "mouse leukemias", "settings": "in vivo; cited from earlier work"}},
  "data": [
    {"smiles": "CC[C@@]1(O)C(=O)OCc2c1cc1n(c2=O)Cc2cc3ccccc3nc2-1", "note": "[20(S)-camptothecin, reference compound]", "values": [
      {"measurement": "toxic deaths", "setting": "[1]; 50 mg/kg body weight", "value": "toxic deaths of all animals"},
      {"measurement": "Overall Toxicity: body weight loss", "setting": "[1]; twice/week treatment, total dose 28 mg/kg", "value": "> 15", "unit": "%"},
      {"measurement": "Overall Toxicity", "setting": "[1]; twice/week treatment, total dose 50 mg/kg", "value": "animal deaths"},
      {"measurement": "Overall Toxicity", "setting": "[1]; twice/week treatment, total dose 70 mg/kg", "value": "animal deaths"},
      {"measurement": "activity against mouse leukemias", "setting": "mouse leukemias", "value": "effective against mouse leukemias"}
    ]}
  ]
}
